Entries after “also recorded” stand apart in the source; their conditions may differ.

Assay [1] relates to EC tube networks. The assay can be described thus: 3D collagen EC tube regression assay. To be noted: for EC tube regression (pro-regressive activity): factor added to established 48 hr EC tube networks, 24 hr. In kind it is cell-based, human. The method, then:
(A) EC cultures with tube networks were established for 48 hr followed by the addition of indicated cytokines or thrombin (Thr) for 24 hr. IL-1β and IL-la were added at 1 ng/ml, TNFα at 3.16 ng/ml and thrombin at 1 μg/ml. Bars equal 100 or 200 μm. (B,C,D) EC tube networks were treated with the indicated cytokines and varying concentrations in dose-response analyses and in the presence or absence of thrombin added at 1 μg/ml. After 24 hr, cultures were fixed, stained and quantitated for EC lumen area per field. These curves are from a representative experiment using triplicate wells for each condition. The values (±SD) are derived from analyzed fields (n=15) where total lumen and tube area was measured. Asterisks indicate significance at p<0.05 compared to control and squares indicate significance at p<0.05 compared to the cytokine treatments alone.
ECs (passages 3-6) and pericytes (passages 3-12) were cultured as previously described^49,50. THP-1 cells were cultured in RPMI-1640-20% FCS. THP-1-T macrophages were differentiated for 72 hr. with 50 ng/ml of phorbol ester in RPMI-20% FCS, and then treated for 48 hr. in RPMI-2% FCS prior to adding TLR ligands. THP-1-VT macrophages were induced to differentiate for 72 hr. with 10^-7 M vitamin D3 (Calcitriol) in RPMI-20% FCS, followed by 48 hr. with phorbol ester in RPMI-2% FCS prior to adding TLR ligands.
(§1) ECs or ECs with pericytes were suspended in 3D collagen matrices and incubated at 37° C. in serum-free defined media as described^9,50,51. Recombinant factors or THP-1 conditioned media were added at the indicated doses to existing 48 or 72 hr. cultures with EC only or EC-pericyte tube networks, respectively. After 24 or 48 hr. for EC only or EC-pericyte tubes, respectively, cultures were fixed in 3% glutaraldehyde or 3% paraformaldehyde. EC tube areas were traced and quantitated as described. In some cases, neutralizing antibodies were added (10 μg/ml). For signaling experiments, lysates were prepared from control vs. regressing 3D cultures at different time points.

Assay [2] relates to EC-pericyte tube networks. The assay can be described thus: EC-pericyte co-culture regression assay. It counts as cell-based, human. To be noted: added to 72 hr co-cultures. As to the method:
(A) EC-pericyte (GFP-labeled) co-cultures were established and allowed to form for 72 hr and at this time, the combination of IL-1β (10 ng/ml), TNFα (10 ng/ml) and thrombin (11 μg/ml) were added in combination compared to control and real-time movies were performed. Light and fluorescent image overlays over time are shown in representative fields. Arrowheads indicate clusters of pericytes that accumulate together during regression responses in response to these three factors in combination. After 48 hr, fixed cultures were stained for CD31 to detect ECs and fluorescence image overlays were performed. (B) The same set up was established as in A, except that each individual factor and combination of factors were added. After 48 hr, the cultures were fixed and stained for CD31. Confocal images were obtained, and fluorescence overlay images are shown.
(A) EC-pericyte co-cultures were established for 72 hr, and then were left untreated or with IL-1β (10 ng/ml), TNFα (10 ng/ml), and thrombin (11 μg/ml) in combination. After 48 hr, cultures were fixed and stained with CD31, confocal microscopy and 3D reconstruction of the images allowed for an upright and side view. (B) EC-pericyte tube networks were treated with the indicated single and combined factors and after fixation, EC tube area was quantitated. […] The values (±SD) were obtained from analyzed fields (n=15) where total lumen and tube area was measured. Asterisks indicate increased significance at p<0.05 compared to control, the squares indicate decreased significance at p<0.05 relative to the single factor conditions and the triangle indicates significance at p<0.05 relative to the double factor conditions. (C) EC-pericyte tube networks were treated with indicated combinations of factors. After 48 hr, total GFP fluorescence per well was quantitated as a measure of pericyte number since they are GFP-labeled. […] Asterisks indicate significance at p<0.05 compared to control.
as §1

Assay [3] concerns Lymphatic EC tube networks. The assay can be described thus: lymphatic EC tube network regression. It counts as cell-based. To be noted: cytokines 10 ng/ml, thrombin 1 μg/ml, 24 hr. As to the method: Lymphatic EC tube networks were established for 48 hr and at that time, the indicated pro-inflammatory mediators were added. IL-10 and TNFα were added at 10 ng/ml, while thrombin was added at 1 μg/ml. (A) After 24 hr, cultures were fixed, stained with toluidine blue and photographed. (B) The cultures in (A) were quantitated for EC tube area. Asterisks indicate significance at p<0.01 compared to control.

The subject of the next assay is EC sprouts and tubes. The assay can be described thus: angiogenic sprouting assay (ECs invading from monolayer surface). It counts as cell-based, human. The settings on record: angiogenic sprouting system. As to the method: (A) ECs were seeded onto a monolayer surface and then allowed to invade into the gels to form tubes over a 48 hr period. At this time, cultures were then treated with IL-1β or TNFα and in the absence or presence of FIST. Cultures were fixed after 24 hr, stained and photographed to visualize the monolayer surface and the underlying sprouts and tubes. (B) Cultures were established just like in A and then the Pak2 inhibitor, Frax486 (2.5 μM) or the microtubule depolymerizing agent, vinblastine (100 nM), were added to media in the presence or absence of FIST. Cultures were fixed after 24 hr, stained and photographed. Bar equals 200 μm.
Studies to define the factors and signals that promote endothelial cell (EC) lumen and tube formation, EC sprouting and EC-pericyte tube co-assembly have been performed under serum-free defined conditions so that the functional role of individual molecules that regulate these processes can be assessed. Disclosed herein, the factors that control capillary regression are defined. Capillary regression is a process that has been largely neglected despite the likelihood that it may present a fundamental pathogenic feature of major human diseases where capillary disassembly and regression are known to occur (i.e. hypertension, diabetes, ischemic disease in many tissues, neurodegenerative diseases, and malignant cancer). […] EC tube networks were allowed to form for 48 hr. (vasculogenesis type of assay) and then added these agents in dose-response experiments, showing that they potently induce EC tube regression (at low ng levels) (FIG. 1). Real-time movies were performed to visualize these pro-regressive activities. This experimental approach has utilized assays that mimic vasculogenesis or angiogenic sprouting and these factors induce regression equally well in both assay systems. […] These studies have been performed primarily in 3D collagen matrices, but the same result is also observed in 3D fibrin matrices.

In assay [4] the test system is EC tube networks. The assay can be described thus: Western blots of lysates from regressing 3D EC cultures (regression signaling signature). In kind it is cell-based, human. The settings on record: 24-hr. time course, compared to control EC tubes. As to the method: (A,B) ECs tube networks were treated with the indicated factors vs. control and at different time points, lysates were prepared from the 3D cultures. Western blots were performed using the different indicated antibodies. (C) Schematic illustrating findings that define a capillary regression signaling signature.
THP-T macrophages were treated with Pam3CSK4 (Pam) or LPS and conditioned medium was added at a 1:20 or 1:50 dilution, respectively, to EC tube networks. Control and IL10-treated cultures were compared with the conditioned medium treatments within the same experiment. At the indicated time points, lysates were obtained, and Western blots were performed with the indicated antibodies.
as §1
In general terms: Immunoblotting shows a protein as a band on a membrane.

A further assay relates to THP-1 macrophages. The assay can be described thus: TLR ligand activation of cells; conditioned medium tested on EC tube networks. In kind it is cell-based, human. As to the method: (§2) (A,B) The TLR ligand Pam3CSK4 was added at 100 ng/ml to THP-1 macrophages that were differentiated in two separate ways (THP-1-VT vs. THP-1-T) or to ECs, fibroblasts (Fib), or pericytes (Peri). Conditioned medium was collected after 4 hr and was added at a 1:5 dilution to established EC tube networks vs. control Pam3CSK4 or control RPMI1640 media. Two independent conditioned media batches were obtained for both the THP-1-VT (i.e. VT1, VT2) and THP-1-T (i.e. T1, T2) macrophage cells. IL-la and IL-1β were added separately at 1 ng/ml. After 24 hr, cultures were fixed, stained, photographed (A) and quantitated for EC tube area (B). Bar equals 200 μm. […] The values (±SD) were obtained from analyzed fields (n=15) where total lumen and tube area was measured. Asterisks indicate significance at p<0.05 compared to control. (C) LPS was added at the indicated concentrations (ng/ml) in the presence or absence of recombinant LPS binding protein (LBP) at 1 μg/ml to EC tube networks. EC lumen areas were measured after 24 hr following these additions. (D) THP-T macrophages were treated with control or 100 ng/ml of Pam3CSK4 (Pam) or LPS. After 4 hr, total RNA was obtained, and RT-PCR analysis was performed evaluating the mRNA expression of indicated genes. […] From the real-time videos, EC lumen areas were measured over time (n=6). […]

A further assay relates to THP-T macrophages. The assay can be described thus: RT-PCR of cytokine mRNA in TLR ligand-treated macrophages. In kind it is cell-based, human. To be noted: 100 ng/ml, 4 hr. As to the method:
as §2

The test system of another assay is hyaloid vessels. The assay can be described thus: hyaloid vascular regression in mice. In kind it is in vivo. To be noted: intravitreal injection, vessel number quantitated at P8. As to the method: (A) Intravitreal injection of blocking antibodies directed to both IL-10 and TNFα vs control IgG was performed at postnatal day (P) 6, and hyaloid vessel number was quantitated at P8. (B) Intravitreal injection of IL-10 was performed at P5 vs vehicle control, and hyaloid vessel number was quantitated at P8. (C and D) Hyaloid vessels at P2 and P8 were immunostained for phospho-MLC2 (p-MLC; red) and CD31-positive endothelial cells (ECs; green), and double-positive cells were imaged and quantitated over time. Scale bar=100 μm. E and F, Analysis of ICAM-1 expression at the mRNA (E) and protein level (F) during different stages of hyaloid vessel regression. CD indicates cluster of differentiation; DAPI, 4′6-diamidino-2-phenylindole; ICAM, intercellular adhesion molecule; and MLC, myosin light chain.
In some embodiments, physiologic capillary regression can be modeled in a mouse by examining the postnatal regression of the eye hyaloid vasculature. In some embodiments, this vascular regressive response can depend on the presence of adjacent macrophages which decorate this developmental vascular bed. […] In some embodiments, EC capillary regression during hyaloid regression can include increased expression of ICAM-1 (at the mRNA and protein level) and increased presence of phospho-MLC2 in regressing hyaloid ECs.

As for thrombin, in the assay on EC tube networks [1], the “EC tube regression (pro-regressive activity)” value was “directly cause capillary tube collapse and regression; also recorded: less effective”. Besides, in assay [2], the “EC tube regression in EC-pericyte co-cultures” value was “marked tube regression in response to each factor individually and, also in combination” and the pericyte numbers entry is recorded as “an increase in pericyte numbers”. Also, the “lymphatic tube network regression” value in assay [3] was “regress”.
For TNFα, the “EC tube regression in screen of growth factors and cytokines” value in the assay on EC tube networks [1] (40 and 10 ng/ml, 48 hr EC tube networks) is on record as “more potent pro-regressive factors than the other factors described herein”. Moreover, in the assay with EC tube networks [1], the “EC tube regression (pro-regressive activity)” value is “directly cause capillary tube collapse and regression”. In addition, in the assay on EC sprouts and tubes, the “degeneration of sprouts and EC monolayer” value is “induce degeneration of the invading sprouts, but also the EC monolayer surface where the sprouts originated”. Besides, in assay [2], the “EC tube regression in EC-pericyte co-cultures” value was “marked tube regression in response to each factor individually and, also in combination” and the pericyte numbers result is recorded as “an increase in pericyte numbers”. For the same molecule, in the assay on EC tube networks [4], the “ICAM-1 and VCAM-1 levels” value is “Strong upregulation of ICAM-1 and VCAM-1”; the “phospho-Pak2, phospho-cofilin, acetylated tubulin, procaspase3 levels” value is “decreased levels of phospho-Pak2, phospho-cofilin, acetylated tubulin and procaspase3”; the “phospho-p38, phospho-JNK, phospho-MLC2 levels” value is “increased levels of phospho-p38, phospho-JNK, and phospho-MLC2”. The “lymphatic tube network regression” value in assay [3] was “regress”.
As for Pam3CSK4, the “EC tube regression (pro-regressive activity)” value with EC tube networks [1] is “Neither Pam3CSK4 or LPS by themselves (with and without the presence of LPS-binding protein, LBP) had any ability to directly cause EC tube regression”. Besides, the “induction of pro-regressive activities in conditioned media of other cell types” value in the assay with THP-1 macrophages (ECs, pericytes and fibroblasts) is “failed to induce pro-regressive activities in their conditioned media”. Besides, in the assay on THP-1 macrophages (TLR ligand 100 ng/ml added to macrophages, medium collected after 4 hr), the “induction of pro-regressive activities in macrophage conditioned medium” value is “highly potent pro-regressive activities in the macrophage conditioned medium”. The “mRNA expression of inflammatory cytokines” value in the assay on THP-T macrophages is “marked upregulation of TNFα, IL-1β, IL-la, IL-6 and IL-10 (i.e. an anti-inflammatory cytokine) as well as tissue factor (i.e. F3)”.

B1: IL-10: anti-inflammatory cytokine (protein, UniProt P22301 19-178, looked up)
Interleukin-10: SPGQGTQSENSCTHFPGNLPNMLRDLRDAFSRVKTFFQMKDQLDNLLLKESLLEDFKGYLGCQALSEMIQFYLEEVMPQAENQDPDIKAHVNSLGENLKTLRLRLRRCHRFLPCENKSKAVEQVKNAFNKLQEKGIYKAMSEFDIFINYIEAYMTMKIRN
In the case of B1, the hyaloid vessel regression entry in the assay with hyaloid vessels was “inhibited hyaloid regression”.

The record behind these values is patent US20240122934A1, “COMPOSITIONS AND METHODS OF TREATMENT FOR INHIBITING CAPILLARY TUBE REGRESSION” (University of South Florida, priority 2019, published 2024).
